# Data: ChEMBL document CHEMBL1201861, “Genomics of Drug Sensitity in Cancer screening data, Wellcome Trust Sanger Institute”
# pIC50: −log10 of the molar value.
# Tests used:
# Experiment in all cases: cells
# Settings in all cases: Homo sapiens
# IST-MEL1 = format: functional, cell-based;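 note: growth inhibition of the cell line, read out with a cell viability assay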
# Description: SANGER: Inhibition of human IST-MEL1 cell growth in a cell viability assay.
# ES8 = format: functional, cell-based;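 note: growth inhibition of human ES8 cells, read out with a cell viability assay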
# Description: SANGER: Inhibition of human ES8 cell growth in a cell viability assay.
# SNU1 = format: functional, cell-based;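 note: growth inhibition of human NCI-SNU-1 cells, measured with a cell viability assay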
# Description: SANGER: Inhibition of human NCI-SNU-1 cell growth in a cell viability assay.
# HCC2218 = format: functional, cell-based;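 note: cell viability assay read-out, with IC50 given as the concentration that inhibits growth of the cell line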
# Description: SANGER: Inhibition of human HCC2218 cell growth in a cell viability assay.
# NCI-H2126 = format: functional, cell-based;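 note: growth inhibition of the cancer cell line, determined with a cell viability readout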
# Description: SANGER: Inhibition of human NCI-H2126 cell growth in a cell viability assay.
# ES3 = format: functional, cell-based;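 note: growth inhibition of ES3 cells, read out with a cell viability assay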
# Description: SANGER: Inhibition of human ES3 cell growth in a cell viability assay.
# NCI-H446 = format: functional, cell-based;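 note: growth inhibition of NCI-H446 cells determined by a cell viability assay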
# Description: SANGER: Inhibition of human NCI-H446 cell growth in a cell viability assay.
# KGN = format: functional, cell-based;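 note: growth inhibition of KGN cells, read out with a cell viability assay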
# Description: SANGER: Inhibition of human KGN cell growth in a cell viability assay.
# A3-KAW = format: functional, cell-based;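 note: growth inhibition of human A3-KAW cells, read out with a cell viability assay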
# Description: SANGER: Inhibition of human A3-KAW cell growth in a cell viability assay.
# NB13 = format: functional, cell-based;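 note: cell viability readout measuring growth inhibition of human NB13 cells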
# Description: SANGER: Inhibition of human NB13 cell growth in a cell viability assay.
# NCI-H1770 = format: functional, cell-based;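 note: growth inhibition of NCI-H1770 cells determined with a viability readout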
# Description: SANGER: Inhibition of human NCI-H1770 cell growth in a cell viability assay.
# Calu-6 = format: functional, cell-based;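 note: growth of human Calu-6 cells, read out by a cell viability assay, IC50 marking inhibition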
# Description: SANGER: Inhibition of human Calu-6 cell growth in a cell viability assay.
# C8166 = format: functional, cell-based;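 note: growth inhibition of human C8166 cells measured by a cell viability assay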
# Description: SANGER: Inhibition of human C8166 cell growth in a cell viability assay.
# RCC10RGB = format: functional, cell-based;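 note: growth inhibition of human RCC10RGB cells, read out by a cell viability assay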
# Description: SANGER: Inhibition of human RCC10RGB cell growth in a cell viability assay.
# EW-24 = format: functional, cell-based;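 note: human EW-24 cancer cell line, growth inhibition read out via a cell viability assay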
# Description: SANGER: Inhibition of human EW-24 cell growth in a cell viability assay.
# Becker = format: functional, cell-based;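 note: growth inhibition of Becker cells, read out with a cell viability assay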
# Description: SANGER: Inhibition of human Becker cell growth in a cell viability assay.
# DEL = format: functional, cell-based;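 note: growth inhibition of the human DEL cell line, read out with a cell viability assay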
# Description: SANGER: Inhibition of human DEL cell growth in a cell viability assay.
# MHH-PREB-1 = format: functional, cell-based;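 note: cell viability assay measuring inhibition of proliferation of human MHH-PREB-1 cells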
# Description: SANGER: Inhibition of human MHH-PREB-1 cell growth in a cell viability assay.
# NCI-H82 = format: functional, cell-based;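 note: growth inhibition of NCI-H82 cells, measured with a cell viability readout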
# Description: SANGER: Inhibition of human NCI-H82 cell growth in a cell viability assay.
# NCI-H747 = format: functional, cell-based;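 note: growth inhibition of human NCI-H747 cells, read out by a cell viability assay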
# Description: SANGER: Inhibition of human NCI-H747 cell growth in a cell viability assay.
# LAMA-84 = format: functional, cell-based;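 note: growth inhibition of LAMA-84 cells, read out with a cell viability assay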
# Description: SANGER: Inhibition of human LAMA-84 cell growth in a cell viability assay.
# JVM-3 = format: functional, cell-based;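 note: growth inhibition of human JVM-3 cells, read out with a cell viability assay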
# Description: SANGER: Inhibition of human JVM-3 cell growth in a cell viability assay.
# HC-1 = format: functional, cell-based;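 note: growth inhibition of HC-1 cells measured by a cell viability assay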
# Description: SANGER: Inhibition of human HC-1 cell growth in a cell viability assay.
# SBC-1 = format: functional, cell-based;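 note: cell viability assay measuring growth inhibition of the SBC-1 cell line, IC50 being the concentration that halves growth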
# Description: SANGER: Inhibition of human SBC-1 cell growth in a cell viability assay.
# NOS-1 = format: functional, cell-based;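 note: growth inhibition of the human NOS-1 cell line, read out with a cell viability assay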
# Description: SANGER: Inhibition of human NOS-1 cell growth in a cell viability assay.
# MC116 = format: functional, cell-based;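 note: growth inhibition of MC116 cells, read out with a cell viability assay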
# Description: SANGER: Inhibition of human MC116 cell growth in a cell viability assay.
# MZ7-mel = format: functional, cell-based;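 note: growth inhibition of human MZ7-mel cells, measured by a cell viability assay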
# Description: SANGER: Inhibition of human MZ7-mel cell growth in a cell viability assay.
# TE-11 = format: functional, cell-based;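 note: growth inhibition of human TE-11 cells, read out by a cell viability assay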
# Description: SANGER: Inhibition of human TE-11 cell growth in a cell viability assay.
# MV4-11 = format: functional, cell-based, MV-4-11;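 note: cell viability readout measuring growth inhibition of human MV-4-11 cells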
# Description: SANGER: Inhibition of human MV-4-11 cell growth in a cell viability assay.
# NCI-H23 = format: functional, cell-based;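 note: cell viability assay measuring growth inhibition of NCI-H23 cells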
# Description: SANGER: Inhibition of human NCI-H23 cell growth in a cell viability assay.
# HDLM-2 = format: functional, cell-based;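 note: cell viability assay measuring suppression of HDLM-2 proliferation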
# Description: SANGER: Inhibition of human HDLM-2 cell growth in a cell viability assay.
# EM-2 = format: functional, cell-based;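 note: growth inhibition of EM-2 cells, read out with a cell viability assay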
# Description: SANGER: Inhibition of human EM-2 cell growth in a cell viability assay.
# MLMA = format: functional, cell-based;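 note: growth inhibition of MLMA cells (human), determined through a cell viability readout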
# Description: SANGER: Inhibition of human MLMA cell growth in a cell viability assay.
# RPMI-8866 = format: functional, cell-based
# Description: SANGER: Inhibition of human RPMI-8866 cell growth in a cell viability assay.
# TK-10 = format: functional, cell-based;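 note: growth inhibition of TK-10 cells, read out in a cell viability assay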
# Description: SANGER: Inhibition of human TK10 cell growth in a cell viability assay.
# KP-N-YS = format: functional, cell-based;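 note: cell viability assay measuring inhibition of cell line growth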
# Description: SANGER: Inhibition of human KP-N-YS cell growth in a cell viability assay.
# ES7 = format: functional, cell-based;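 note: growth inhibition of cultured human ES7 cells, read out as cell viability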
# Description: SANGER: Inhibition of human ES7 cell growth in a cell viability assay.
# NB5 = format: functional, cell-based;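 note: growth inhibition of NB5 cells, read out as cell viability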
# Description: SANGER: Inhibition of human NB5 cell growth in a cell viability assay.
# MZ1-PC = format: functional, cell-based;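 note: cell viability assay measuring growth inhibition of human MZ1-PC cells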
# Description: SANGER: Inhibition of human MZ1-PC cell growth in a cell viability assay.
# ES4 = format: functional, cell-based;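 note: growth inhibition of human ES4 cells, read out by a cell viability assay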
# Description: SANGER: Inhibition of human ES4 cell growth in a cell viability assay.
# A388 = format: functional, cell-based;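 note: growth inhibition of human A388 cells, read out with a cell viability assay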
# Description: SANGER: Inhibition of human A388 cell growth in a cell viability assay.
# no-10 = format: functional, cell-based;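 note: growth inhibition of no-10 cells, read out with a cell viability assay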
# Description: SANGER: Inhibition of human no-10 cell growth in a cell viability assay.
# GT3TKB = format: functional, cell-based;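 note: growth inhibition of the cell line, read out with a cell viability assay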
# Description: SANGER: Inhibition of human GT3TKB cell growth in a cell viability assay.
# IA-LM = format: functional, cell-based;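 note: cell viability assay measuring growth inhibition of human IA-LM cells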
# Description: SANGER: Inhibition of human IA-LM cell growth in a cell viability assay.
# DMS-114 = format: functional, cell-based
# L-363 = format: functional, cell-based
# Description: SANGER: Inhibition of human L-363 cell growth in a cell viability assay.
# SF-126 = format: functional, cell-based;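 note: growth inhibition of human SF126 cells, read out with a cell viability assay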
# Description: SANGER: Inhibition of human SF126 cell growth in a cell viability assay.
# TE-12 = format: functional, cell-based;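 note: growth inhibition of TE-12 cells, read out by a cell viability assay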
# Description: SANGER: Inhibition of human TE-12 cell growth in a cell viability assay.
# D-502MG = format: functional, cell-based
# Description: SANGER: Inhibition of human D-502MG cell growth in a cell viability assay.
# ES6 = format: functional, cell-based;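 note: growth inhibition of human ES6 cells, read out with a cell viability assay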
# Description: SANGER: Inhibition of human ES6 cell growth in a cell viability assay.
# NCI-H720 = format: functional, cell-based;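 note: growth inhibition of human NCI-H720 cells determined by a cell viability assay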
# Description: SANGER: Inhibition of human NCI-H720 cell growth in a cell viability assay.
# A704 = format: functional, cell-based;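 note: growth inhibition of human A704 cells, read out with a cell viability assay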
# Description: SANGER: Inhibition of human A704 cell growth in a cell viability assay.
# HCC1187 = format: functional, cell-based;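 note: growth inhibition of HCC1187 cells, read out with a cell viability assay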
# Description: SANGER: Inhibition of human HCC1187 cell growth in a cell viability assay.
# GCIY = format: functional, cell-based
# Description: SANGER: Inhibition of human GCIY cell growth in a cell viability assay.
# NCI-H1299 = format: functional, cell-based
# Description: SANGER: Inhibition of human NCI-H1299 cell growth in a cell viability assay.
# DJM-1 = format: functional, cell-based
# Description: SANGER: Inhibition of human DJM-1 cell growth in a cell viability assay.
# SK-MEL-2 = format: functional, cell-based
# Description: SANGER: Inhibition of human SK-MEL-2 cell growth in a cell viability assay.
# HEL = format: functional, cell-based
# Description: SANGER: Inhibition of human HEL cell growth in a cell viability assay.
# MS-1 = format: functional, cell-based
# Description: SANGER: Inhibition of human MS-1 cell growth in a cell viability assay.
# NB69 = format: functional, cell-based
# Description: SANGER: Inhibition of human NB69 cell growth in a cell viability assay.
# BB65-RCC = format: functional, cell-based
# Description: SANGER: Inhibition of human BB65-RCC cell growth in a cell viability assay.
# RXF 393 = format: functional, cell-based
# Description: SANGER: Inhibition of human RXF393 cell growth in a cell viability assay.
# PSN1 = format: functional, cell-based
# Description: SANGER: Inhibition of human PSN1 cell growth in a cell viability assay.
# HOP-62 = format: functional, cell-based
# Description: SANGER: Inhibition of human HOP-62 cell growth in a cell viability assay.
# SK-N-DZ = format: functional, cell-based
# Description: SANGER: Inhibition of human SK-N-DZ cell growth in a cell viability assay.
# LU-139 = format: functional, cell-based
# Description: SANGER: Inhibition of human LU-139 cell growth in a cell viability assay.
smiles,measurement,setting,value
Cn1cc(/C=C2\C(=O)Nc3cccnc32)c2ccccc21,pIC50,IST-MEL1,< 5.70
same,pIC50,ES8,< 5.70
same,pIC50,SNU1,< 5.70
same,pIC50,HCC2218,< 5.70
same,pIC50,NCI-H2126,< 5.70
same,pIC50,ES3,< 5.70
same,pIC50,NCI-H446,< 5.70
same,pIC50,KGN,< 5.70
same,pIC50,A3-KAW,< 5.70
same,pIC50,NB13,< 5.70
same,pIC50,NCI-H1770,< 5.70
same,pIC50,Calu-6,< 5.70
same,pIC50,C8166,< 5.70
same,pIC50,RCC10RGB,< 5.70
same,pIC50,EW-24,< 5.70
same,pIC50,Becker,< 5.70
same,pIC50,DEL,< 5.70
same,pIC50,MHH-PREB-1,< 5.70
same,pIC50,NCI-H82,< 5.70
same,pIC50,NCI-H747,< 5.70
same,pIC50,LAMA-84,< 5.70
same,pIC50,JVM-3,< 5.70
same,pIC50,HC-1,< 5.70
same,pIC50,SBC-1,< 5.70
same,pIC50,NOS-1,< 5.70
same,pIC50,MC116,< 5.70
same,pIC50,MZ7-mel,< 5.70
same,pIC50,TE-11,< 5.70
same,pIC50,MV4-11,6.53
same,pIC50,NCI-H23,< 5.70
same,pIC50,HDLM-2,< 5.70
same,pIC50,EM-2,< 5.70
same,pIC50,MLMA,< 5.70
same,pIC50,RPMI-8866,< 5.70
same,pIC50,TK-10,< 5.70
same,pIC50,KP-N-YS,< 5.70
same,pIC50,ES7,< 5.70
same,pIC50,NB5,< 5.70
same,pIC50,MZ1-PC,< 5.70
same,pIC50,ES4,< 5.70
same,pIC50,A388,< 5.70
same,pIC50,no-10,< 5.70
same,pIC50,GT3TKB,< 5.70
same,pIC50,IA-LM,< 5.70
same,pIC50,DMS-114,< 5.70
same,pIC50,L-363,< 5.70
same,pIC50,SF-126,< 5.70
same,pIC50,TE-12,< 5.70
same,pIC50,D-502MG,< 5.70
same,pIC50,ES6,< 5.70
same,pIC50,NCI-H720,< 5.70
same,pIC50,A704,< 5.70
same,pIC50,HCC1187,< 5.70
same,pIC50,GCIY,< 5.70
same,pIC50,NCI-H1299,< 5.70
same,pIC50,DJM-1,< 5.70
same,pIC50,SK-MEL-2,< 5.70
same,pIC50,HEL,< 5.70
same,pIC50,MS-1,< 5.70
same,pIC50,NB69,< 5.70
same,pIC50,BB65-RCC,< 5.70
same,pIC50,RXF 393,< 5.70
same,pIC50,PSN1,< 5.70
same,pIC50,HOP-62,6.49
same,pIC50,SK-N-DZ,< 5.70
same,pIC50,LU-139,< 5.70
C/C(O)=C(\C#N)C(=O)Nc1cc(Br)ccc1Br,pIC50,IST-MEL1,< 4.80
same,pIC50,ES8,< 4.80
same,pIC50,SNU1,< 4.80
same,pIC50,HCC2218,< 4.80
same,pIC50,NCI-H2126,< 4.80
same,pIC50,ES3,< 4.80
same,pIC50,NCI-H446,< 4.80
same,pIC50,KGN,< 4.80
same,pIC50,A3-KAW,< 4.80
same,pIC50,NB13,< 4.80
same,pIC50,NCI-H1770,< 4.80
same,pIC50,Calu-6,< 4.80
same,pIC50,C8166,< 4.80
same,pIC50,RCC10RGB,< 4.80
same,pIC50,EW-24,< 4.80
same,pIC50,Becker,< 4.80
same,pIC50,DEL,< 4.80
same,pIC50,MHH-PREB-1,< 4.80
same,pIC50,NCI-H82,< 4.80
same,pIC50,NCI-H747,< 4.80
same,pIC50,LAMA-84,< 4.80
same,pIC50,JVM-3,< 4.80
same,pIC50,HC-1,< 4.80
same,pIC50,SBC-1,< 4.80
same,pIC50,NOS-1,< 4.80
same,pIC50,MC116,< 4.80
same,pIC50,MZ7-mel,< 4.80
same,pIC50,TE-11,< 4.80
same,pIC50,MV4-11,< 4.80
same,pIC50,NCI-H23,< 4.80
same,pIC50,HDLM-2,< 4.80
same,pIC50,EM-2,< 4.80
same,pIC50,MLMA,< 4.80
same,pIC50,RPMI-8866,< 4.80
same,pIC50,TK-10,< 4.80
same,pIC50,KP-N-YS,< 4.80
same,pIC50,ES7,< 4.80
same,pIC50,NB5,< 4.80
same,pIC50,MZ1-PC,< 4.80
same,pIC50,ES4,< 4.80
same,pIC50,A388,< 4.80
same,pIC50,no-10,< 4.80
same,pIC50,GT3TKB,< 4.80
same,pIC50,IA-LM,< 4.80
same,pIC50,DMS-114,< 4.80
same,pIC50,L-363,< 4.80
same,pIC50,SF-126,< 4.80
same,pIC50,TE-12,< 4.80
same,pIC50,D-502MG,< 4.80
same,pIC50,ES6,< 4.80
same,pIC50,NCI-H720,< 4.80
same,pIC50,A704,< 4.80
same,pIC50,HCC1187,< 4.80
same,pIC50,GCIY,< 4.80
same,pIC50,NCI-H1299,< 4.80
same,pIC50,DJM-1,< 4.80
same,pIC50,SK-MEL-2,< 4.80
same,pIC50,HEL,< 4.80
same,pIC50,MS-1,< 4.80
same,pIC50,NB69,< 4.80
same,pIC50,BB65-RCC,< 4.80
same,pIC50,RXF 393,< 4.80
same,pIC50,PSN1,< 4.80
same,pIC50,HOP-62,< 4.80
same,pIC50,SK-N-DZ,< 4.80
same,pIC50,LU-139,< 4.80
